Assay results: PubChem BioAssay (NCI)
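Five concentrations, 48 hours, 96-well plates. At the TGI there is no net growth.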

Experiments:
Assay in all cases: NCI tumour cell line growth inhibition, 48 h
[1] = system: A498 renal
[2] = system: A549 NSCLC
[3] = system: CAKI-1 renal
[4] = system: CCRF-CEM leukemia
[5] = system: COLO 205 colon
[6] = system: DLD-1 colon
[7] = system: DMS 114 small cell lung
[8] = system: DMS 273 small cell lung
[9] = system: EKVX NSCLC
[10] = system: HCC-2998 colon
[11] = system: HCT-116 colon
[12] = system: HCT-15 colon
[13] = system: HL-60(TB) leukemia
[14] = system: HOP-18 NSCLC
[15] = system: HOP-62 NSCLC
[16] = system: HOP-92 NSCLC
[17] = system: HT29 colon
[18] = system: IGROV1 ovarian
[19] = system: K-562 leukemia
[20] = system: KM12 colon
[21] = system: KM20L2 colon
[22] = system: LOX IMVI melanoma
[23] = system: M19-MEL melanoma
[24] = system: MALME-3M melanoma
[25] = system: MCF7 breast
[26] = system: MOLT-4 leukemia
[27] = system: NCI-H226 lung
[28] = system: NCI-H23 lung
[29] = system: NCI-H460 lung
[30] = system: NCI-H522 lung
[31] = system: NCI/ADR-RES ovarian
[32] = system: OVCAR-3 ovarian
[33] = system: OVCAR-4 ovarian
[34] = system: OVCAR-5 ovarian
[35] = system: OVCAR-8 ovarian
[36] = system: P388/ADR leukemia
[37] = system: RPMI-8226 leukemia
[38] = system: SF-268 CNS
[39] = system: SF-295 CNS
[40] = system: SF-539 CNS
[41] = system: SK-MEL-2 melanoma
[42] = system: SK-MEL-5 melanoma
[43] = system: SK-OV-3 ovarian
[44] = system: SN12C renal
[45] = system: SN12K1 renal
[46] = system: SNB-19 CNS
[47] = system: SNB-75 CNS
[48] = system: SNB-78 CNS
[49] = system: SW-620 colon
[50] = system: U251 CNS
[51] = system: UACC-257 melanoma
[52] = system: UACC-62 melanoma
[53] = system: UO-31 renal
[54] = system: XF 498 CNS

CC1[C@@H]2CC=C3C4CCC5Cc6nc7c(nc6C[C@@]5(C)C4CC(=O)[C@]32CO[C@@]1(O)C(O)CC(C)(C)O)CC1CCC2C3=C[C@H]4O[C@@]5(O[C@@](C)(CO)C[C@@H]5O)C(C)[C@@]4(O)[C@]3(C)[C@@H](O)CC2[C@]1(C)C7 (some centres undefined)
TGI [1]: 11.2 nM
TGI [2]: 383 nM
TGI [3]: 417 nM
TGI [4]: 29.4 nM
TGI [5]: 60.8 nM
TGI [6]: 1150 nM
TGI [7]: 47.1 nM
TGI [8]: 1.74 nM
TGI [9]: 47.9 nM
TGI [10]: 832 nM
TGI [11]: 501 nM
TGI [12]: 330 nM
TGI [13]: 58.1 nM
TGI [14]: 739 nM
TGI [15]: 2.48 nM
TGI [16]: 1120 nM
TGI [17]: 48.4 nM
TGI [18]: 736 nM
TGI [19]: 434 nM
TGI [20]: 571 nM
TGI [21]: 137 nM
TGI [22]: 91.4 nM
TGI [23]: 729 nM
TGI [24]: 91.1 nM
TGI [25]: 192 nM
TGI [26]: 376 nM
TGI [27]: 376 nM
TGI [28]: 27.2 nM
TGI [29]: 36.4 nM
TGI [30]: 124 nM
TGI [31]: 2740 nM
TGI [32]: 2360 nM
TGI [33]: 1290 nM
TGI [34]: 62.8 nM
TGI [35]: 3600 nM
TGI [36]: 89.1 nM
TGI [37]: 45 nM
TGI [38]: 124 nM
TGI [39]: 0.713 nM
TGI [40]: 42.3 nM
TGI [41]: 89.1 nM
TGI [42]: 46.9 nM
TGI [43]: 27.9 nM
TGI [44]: 2900 nM
TGI [45]: 406 nM
TGI [46]: 329 nM
TGI [47]: 3.13 nM
TGI [48]: 483 nM
TGI [49]: 56.4 nM
TGI [50]: 34.5 nM
TGI [51]: 112 nM
TGI [52]: 10.8 nM
TGI [53]: 83.6 nM
TGI [54]: 50.2 nM
